The results in this text go back to ChEMBL document CHEMBL1201862, “PubChem BioAssay data set” (2004).

Activity calls are given as the source filed them.

Assay [1] deals with Streptococcus sp. 'group A'. The assay can be described thus: Streptococcus pyogenes SK(-)GAS viability under kanamycin – luminescence, BacTiterGlo, confirmation, counter-screen for streptokinase expression inhibitor project, dose response (AID 1900). In kind it is functional, organism-based. For orientation: Counterscreens check selectivity or assay interference.
The next assay deals with T1, Streptokinase A (Streptococcus pyogenes serotype M1, UniProt P10520).
T1 sequence (P10520 whole entry): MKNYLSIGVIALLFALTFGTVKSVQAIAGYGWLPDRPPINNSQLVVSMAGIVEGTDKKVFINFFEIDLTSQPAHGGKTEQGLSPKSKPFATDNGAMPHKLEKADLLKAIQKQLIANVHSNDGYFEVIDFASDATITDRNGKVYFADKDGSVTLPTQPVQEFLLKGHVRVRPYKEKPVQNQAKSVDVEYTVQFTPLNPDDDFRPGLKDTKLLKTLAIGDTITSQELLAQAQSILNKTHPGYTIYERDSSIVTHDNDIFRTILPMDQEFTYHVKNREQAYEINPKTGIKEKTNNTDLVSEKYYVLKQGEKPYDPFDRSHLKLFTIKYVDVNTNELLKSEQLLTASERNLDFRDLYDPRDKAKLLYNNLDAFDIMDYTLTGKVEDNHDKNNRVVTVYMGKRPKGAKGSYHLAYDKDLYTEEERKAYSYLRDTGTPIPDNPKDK
The assay can be described thus: viability-normalized secreted streptokinase activity reduction – plasminogen activation absorbance, OD405, dose response (AID 1914).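 Note: secreted streptokinase activity via plasminogen activation per viability signal from cell pellet.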 In kind it is functional, Streptococcus pyogenes M1 GAS.

The test system of a further assay is Streptococcus. The assay can be described thus: GAS UMAA2166 growth inhibition – luminescence, BacTiterGlo, counter-screen for streptokinase expression inhibitor project, dose response (AID 1915).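 Note: potency for reduction of bacterial viability or growth.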 In kind it is functional, organism-based.
The next assay has as its target Cytochrome P450 2C19 (Homo sapiens, UniProt P33261). The assay can be described thus: Cytochrome panel assay with activity outcomes. Panel member name: p450-cyp2c19 Compounds with AC50 equal or less than 10 uM are considered active. As to conditions: read-out: AC50. In kind it is functional.
In another assay the target is Cytochrome P450 2D6 (Homo sapiens, UniProt P10635).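 Note: CYP2D6 member of a cytochrome P450 panel assay.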
Cytochrome P450 2D6, sequence (P10635 whole entry): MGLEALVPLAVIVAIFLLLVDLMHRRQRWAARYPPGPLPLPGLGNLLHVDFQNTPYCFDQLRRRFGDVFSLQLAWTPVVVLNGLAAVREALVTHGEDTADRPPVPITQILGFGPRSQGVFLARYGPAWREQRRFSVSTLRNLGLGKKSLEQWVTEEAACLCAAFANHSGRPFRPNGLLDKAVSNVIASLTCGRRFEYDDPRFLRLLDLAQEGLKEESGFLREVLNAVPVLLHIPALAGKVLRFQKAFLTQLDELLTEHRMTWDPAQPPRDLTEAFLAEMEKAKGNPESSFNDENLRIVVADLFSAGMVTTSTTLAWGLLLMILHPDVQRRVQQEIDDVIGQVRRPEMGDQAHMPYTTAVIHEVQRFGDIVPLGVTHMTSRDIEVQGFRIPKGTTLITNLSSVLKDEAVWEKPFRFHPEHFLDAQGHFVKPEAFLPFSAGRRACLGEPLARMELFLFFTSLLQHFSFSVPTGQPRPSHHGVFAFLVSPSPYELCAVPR
Another assay deals with T2, Cytochrome P450 1A2 (Homo sapiens, UniProt P05177).
T2 sequence (P05177 whole entry): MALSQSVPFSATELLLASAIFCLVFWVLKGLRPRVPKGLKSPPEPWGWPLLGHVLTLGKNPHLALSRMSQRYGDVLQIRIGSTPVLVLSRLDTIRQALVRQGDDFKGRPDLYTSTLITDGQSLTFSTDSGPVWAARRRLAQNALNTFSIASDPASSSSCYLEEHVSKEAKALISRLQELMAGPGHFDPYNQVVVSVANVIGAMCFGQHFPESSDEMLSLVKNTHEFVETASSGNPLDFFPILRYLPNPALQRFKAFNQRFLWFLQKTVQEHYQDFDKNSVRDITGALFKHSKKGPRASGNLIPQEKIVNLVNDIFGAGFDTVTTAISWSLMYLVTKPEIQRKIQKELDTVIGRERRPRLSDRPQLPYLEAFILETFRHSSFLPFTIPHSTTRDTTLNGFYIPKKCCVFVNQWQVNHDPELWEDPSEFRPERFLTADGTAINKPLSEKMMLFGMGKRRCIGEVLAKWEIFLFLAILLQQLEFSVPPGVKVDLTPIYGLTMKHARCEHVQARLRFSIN

In assay [2] the target is T3, Heat shock factor protein 1 (Mus musculus, UniProt P38532).
T3 sequence (P38532 whole entry): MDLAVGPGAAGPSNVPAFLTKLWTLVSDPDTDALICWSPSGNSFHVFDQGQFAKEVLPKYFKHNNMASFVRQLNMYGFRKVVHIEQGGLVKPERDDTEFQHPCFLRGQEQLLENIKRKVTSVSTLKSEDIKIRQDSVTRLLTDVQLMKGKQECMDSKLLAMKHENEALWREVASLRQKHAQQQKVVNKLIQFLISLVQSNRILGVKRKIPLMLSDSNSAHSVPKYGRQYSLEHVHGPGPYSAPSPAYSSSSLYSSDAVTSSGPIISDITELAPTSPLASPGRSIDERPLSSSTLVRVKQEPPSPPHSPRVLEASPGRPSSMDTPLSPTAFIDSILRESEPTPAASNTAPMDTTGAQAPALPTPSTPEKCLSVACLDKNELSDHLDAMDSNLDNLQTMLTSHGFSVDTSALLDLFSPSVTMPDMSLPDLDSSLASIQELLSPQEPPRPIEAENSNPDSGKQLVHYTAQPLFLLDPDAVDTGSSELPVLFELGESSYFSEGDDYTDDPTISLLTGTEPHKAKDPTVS
The assay can be described thus: enhancement of HSF1-driven luciferase signal – cell-based, NIH3T3, luminescence, dose retest, confirmation (AID 435004).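 Note: stress induced by proteasome inhibitor MG132 added 30 min after compound; luciferase reporter driven by HSF1 response element in NIH3T3 cells; actives raise luminescence as potentiators of the MG132 stress response.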 In kind it is functional.

The nature of assay [3]: Trypanosoma cruzi growth suppression in host cells – NIH3T3 host cells, beta-gal luminescence, confirmation (AID 2044).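 Note: intracellular parasites grown in NIH/3T3 mouse fibroblasts as host cells; luminescent beta-galactosidase reporter signal from transgenic T. cruzi replicating inside host cells; inhibitors lower the luminescence signal.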 In kind it is functional, cell-based.
Assay [4] can be described thus: NIH3T3 cell viability loss – ATP luminescence, mouse fibroblasts, counter-screen, dose response (AID 2010).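 Note: cells exposed to compound for about 90 hours before reading.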 In kind it is functional, cell-based.

A word on the EC50: it is the concentration at which the effect is half-maximal. By AC50 is commonly meant the concentration at which the activity in the assay is half-maximal.

Cytochrome P450 2C19, sequence (P33261 whole entry): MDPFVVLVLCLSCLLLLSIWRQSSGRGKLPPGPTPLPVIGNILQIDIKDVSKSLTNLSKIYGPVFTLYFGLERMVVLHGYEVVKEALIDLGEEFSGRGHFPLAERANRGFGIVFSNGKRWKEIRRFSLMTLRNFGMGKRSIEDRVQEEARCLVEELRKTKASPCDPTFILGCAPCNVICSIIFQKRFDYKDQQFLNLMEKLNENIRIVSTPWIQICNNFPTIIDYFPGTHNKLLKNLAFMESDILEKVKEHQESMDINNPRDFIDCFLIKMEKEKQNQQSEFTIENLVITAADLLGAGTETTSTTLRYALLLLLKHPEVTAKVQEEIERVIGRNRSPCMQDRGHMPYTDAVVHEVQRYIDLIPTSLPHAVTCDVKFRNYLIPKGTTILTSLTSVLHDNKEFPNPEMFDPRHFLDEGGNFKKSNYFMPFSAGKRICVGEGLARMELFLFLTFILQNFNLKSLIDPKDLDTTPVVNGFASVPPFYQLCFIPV

Regarding `CC(C)(C)N(Cc1ccccc1)C(=O)COc1cccnc1[N+](=O)[O-]`, the EC50 (in [1]; at Streptokinase A; with Streptococcus) was > 150 µM (not active) throughout. Consider `Cc1ccc(CN(C(=O)c2ccco2)C2CCS(=O)(=O)C2)cc1` (stereo not given), for which the EC50 (in assay [1]; at Streptokinase A; in the assay with Streptococcus) was > 150 µM (not active) throughout. Regarding `O=C(CSc1nnc(NC(=O)C2CC(=O)N(c3ccc(F)cc3)C2)s1)NCc1ccco1` (stereo not given), the EC50 (in [1]; at Streptokinase A; in the assay with Streptococcus) was > 150 µM (not active) each time. As for `CC(=O)c1cccc(NC(=O)/C(=C\c2ccco2)NC(=O)c2cccs2)c1`, the AC50 at Cytochrome P450 2C19 is 11.2 µM (inconclusive); at Cytochrome P450 2D6 it was 14.1 µM (inconclusive); on Cytochrome P450 1A2 it was 14.1 µM (inconclusive). With `Cc1noc(C)c1-c1nccc(NCc2cccnc2)n1`, the AC50 at Cytochrome P450 2D6 was 20 µM (inconclusive). On to `COc1cc(C2CC(c3cccnc3)=NN2c2ccc(F)cc2)cc(OC)c1OC` (stereo not given), for which the EC50 in [2] is 48.5 µM (active). On to `Cn1c(C[C@@H](O)c2nc3ccccc3n2C)nc2ccccc21`, for which the AC50 on Cytochrome P450 2D6 is 2.51 µM (inconclusive). Consider `CCOC(=O)c1cc(C#N)c(SCc2ccc(C#N)cc2)nc1C`, for which the EC50 in assay [2] was 41.9 µM (active). As to `CCCCC#Cc1ccccc1CC(=O)Nc1ccccc1`, the AC50 on Cytochrome P450 2D6 is 12.6 µM (inconclusive). On the same count and under the same terms, for `CC(=O)N1CCC2(CCN(Cc3ccccc3)CC2)CC1` the value was 15.8 µM (inconclusive).

Take `Nc1ccccc1Nc1ccc([N+](=O)[O-])cc1[N+](=O)[O-]`: the EC50 in [2] is > 260 µM (inactive). With `CC1CCN(c2nc(-c3ccccc3)cc(C(F)(F)F)n2)CC1`, the figures for the EC50 (in [1]; on Streptokinase A; with Streptococcus) were 3.73 µM (active), 9.36 µM (inconclusive) and 9.37 µM (active), respectively. For the molecule `Cc1ccc(NC(S)=Nc2nc(CC(=O)Nc3ccccc3)cs2)cc1`, the AC50 at Cytochrome P450 2D6 was 1.78 µM (inconclusive). As for `CN(CC1CCCO1)S(=O)(=O)c1ccc(C(=O)Nc2ccc(F)cc2)cc1` (stereo not given), the EC50 (in assay [1]; on Streptokinase A; in the assay on Streptococcus) was > 150 µM (not active) in each case.

Consider `COc1cccc(-c2ccc3ncnc(NC4CC4)c3c2)c1`, for which, on Cytochrome P450 2D6, the AC50 is 25.1 µM (inconclusive). With `COc1cc(/C=C2/SC(=S)N(Cc3ccccc3)C2=O)ccc1O`, the EC50 in assay [1] was 3.89 µM (active); at Streptokinase A, > 150 µM (not active); in the assay on Streptococcus it was 7.59 µM (active). For `COC(=O)c1ccc(C23CC2(C(NP(=O)(c2ccccc2)c2ccccc2)c2ccccc2)C3)cc1` (stereo not given), the AC50 at Cytochrome P450 2D6 was 31.6 µM (inconclusive). Same read-out and setting: for `Cc1cnc(CNc2ncnc3ccc(-c4ccccc4C)cc23)cn1` the value was 20 µM (inconclusive).

On to `CC(C)(C)NC(=O)c1ccc2c3c(cccc13)CC2`, for which the EC50 in assay [2] was > 260 µM (inactive). As to `CCOc1ccc(N2CC(=O)C(c3nc(O)c4ccccc4n3)=C2N)cc1`, the EC50 in assay [2] is > 260 µM (inactive). Consider `COC(=O)c1c(C)[nH]c(C(=O)OCC(=O)N(CC(C)C)c2c(N)n(Cc3ccccc3)c(=O)[nH]c2=O)c1C`, for which the EC50 in [1] was 5.83 µM (active); on Streptokinase A it was > 150 µM (not active); in the assay with Streptococcus it was > 150 µM (not active). As to `COc1ccc(CN(CC2CCC(C(=O)O)CC2)C(S)=Nc2cc(Cl)ccc2OC)cc1` (stereo not given), the EC50 in [2] was > 260 µM (inactive). On the same count and under the same terms, next, `COc1ccc(S(=O)(=O)n2nc(OC(=O)c3ccccc3Br)cc2N)cc1`: 18.2 µM (active). `Oc1nc(CSc2ncnc3sccc23)nc2ccccc12`: the figures for the EC50 (in assay [1]; at Streptokinase A; in the assay with Streptococcus) were 0.734 µM (active), > 150 µM (not active) and 14.3 µM (active), respectively. In the case of `CC(C)(C)c1nc(NC(=O)Nc2ccccc2)sc1Br`, the EC50 in assay [1] is 4.45 µM (active); on Streptokinase A, > 50 µM (not active); in assay [3], 4.22 µM (active); in assay [4], > 60 µM (not active); in the assay with Streptococcus it was 6.77 µM (active). As to `O=C(O)CSc1c(-c2ccccc2)[nH]c2ccccc12`, the EC50 in assay [2] was > 260 µM (inactive). Consider `CN(C)c1ncc2nc(CCc3ccccc3)c(=O)n(-c3ccccc3)c2n1`, for which the AC50 is 39.8 µM (inconclusive) at Cytochrome P450 2C19 and 2.51 µM (inconclusive) on Cytochrome P450 2D6. Consider `COc1cc2[nH]c(=S)n(Cc3ccco3)c(=O)c2cc1OC`, for which the EC50 in assay [2] is > 260 µM (inactive). On to `Cc1ccccc1CC(=O)NC1CCCc2ccccc21` (stereo not given), for which, in [2], the EC50 was > 260 µM (inactive). Turning to `O=C(NC1CCCN(Cc2ccccc2F)C1)c1cccs1` (stereo not given), the EC50 in assay [2] is > 260 µM (inactive). As to `COC(=O)/C(=C\C(=O)c1ccccc1)Nc1cccc(C(F)(F)F)c1`, the AC50 on Cytochrome P450 2D6 is 25.1 µM (inconclusive). In the case of `O=C(O)COc1ccc(/C=N/Nc2nc(Nc3ccccc3)nc(N3CCCCC3)n2)cc1`, the results for the EC50 (in assay [1]; at Streptokinase A; in the assay with Streptococcus) were 18.2 µM (active), > 150 µM (not active) and 16.7 µM (active), respectively.

For `Cc1ccc(CC2S/C(=N\c3ccccc3)N(c3ccccc3)C2=O)cc1` (stereo not given), in assay [2], the EC50 is > 260 µM (inactive). Still for that read-out and setting: for `Cc1ccn2c(C(=O)N/N=C\c3ccccc3[N+](=O)[O-])c(C)nc2c1` the value was > 260 µM (inactive); for `Cc1ccc(/N=C2\SC(C(=O)NCCc3ccccc3)CC(=O)N2C)cc1C` (stereo not given), > 260 µM (inactive). Consider `O=[N+]([O-])c1cccc(/C=N/Nc2nc(N3CCCCC3)nc(N3CCCCC3)n2)c1`, for which the EC50 in assay [1] was 33.5 µM (active); at Streptokinase A, 39.4 µM (active); in the assay on Streptococcus it was > 150 µM (not active). Regarding `CCCCCCCCCCCCCC(=O)O[C@H](CC(=O)[O-])C[N+](C)(C)C`, the AC50 on Cytochrome P450 2D6 was 31.6 µM (inconclusive). Turning to `CC[N+](CC)(CCNC(=O)C(=O)NCC[N+](CC)(CC)Cc1ccccc1Cl)Cc1ccccc1Cl` [AMBENONIUM], on Cytochrome P450 2D6, the AC50 was 39.8 µM (inconclusive).
